From ChEMBL document CHEMBL5356934, “Antibacterial activities of anthraquinones: structure-activity relationships and action mechanisms” (RSC Med Chem, 2023)
Converted amounts (≈) assume the structure as drawn.

What was measured:
Staphylococcus aureus [1] = experiment: Antibacterial activity against methicillin-resistant Staphylococcus aureus J-108; type: functional
Enterococcus faecium [2] = experiment: Antibacterial activity against vancomycin susceptible Enterococcus faecium119-39A assessed as inhibition of bacterial growth by broth microdilution method; type: functional; conditions: 119-39A
Staphylococcus aureus [3] = experiment: Antibacterial activity against methicillin-susceptible Staphylococcus aureus assessed as reduction in bacterial growth; type: functional
Enterococcus faecium [4] = experiment: Antibacterial activity against vancomycin-resistant Enterococcus faecium; type: functional
Pseudomonas aeruginosa [5] = experiment: Antibacterial activity against wild type Pseudomonas aeruginosa ATCC 27853 after 24 hrs by microbroth dilution method; type: functional
Staphylococcus aureus [6] = experiment: Antibacterial activity against Staphylococcus aureus ATCC 25923 assessed as reduction in microbial growth after 24 hrs by spectrophotometric method; type: functional
Salmonella typhimurium [7] = experiment: Antibacterial activity against Salmonella typhimurium ATCC 1255 assessed as reduction in bacterial growth; type: functional, Salmonella enterica subsp. enterica serovar Typhimurium; conditions: Salmonella enterica
Staphylococcus aureus [8] = experiment: Antibacterial activity against Staphylococcus aureus NCTC 11994 assessed as reduction in bacterial growth; type: functional
Staphylococcus aureus [9] = experiment: Antibacterial activity against Staphylococcus aureus assessed as diameter of inhibition zone; type: functional
Bacillus cereus [10] = experiment: Antibacterial activity against Bacillus cereus; type: functional
Vibrio campbellii = experiment: Antibacterial activity against Vibrio campbellii MCCC E333 assessed as cell growth inhibition measured after 24 hrs by resazurin dye based assay; type: functional
Staphylococcus aureus [11] = experiment: Antibacterial activity against methicillin-resistant Staphylococcus aureus CGMCC1.12483 assessed as reduction in bacterial growth by CLSI protocol based broth microdilution method; type: functional
Staphylococcus aureus [12] = experiment: Antibacterial activity against methicillin-resistant Staphylococcus aureus ATCC 43300 assessed as reduction in bacterial growth by CLSI protocol based broth microdilution method; type: functional
Vibrio rotiferianus = experiment: Antibacterial activity against Vibrio rotiferianus MCCC E385 assessed as cell growth inhibition measured after 24 hrs by resazurin dye based assay; type: functional
Streptococcus mutans = experiment: Antibacterial activity against Streptococcus mutans ATCC 25175 assessed as inhibition of bacterial growth incubated for 18 to 20 hrs by CLSI protocol based broth microdilution method; type: functional; conditions: time 18-20 hrs
Staphylococcus aureus [13] = experiment: Antibacterial activity against Staphylococcus aureus ATCC 25923 assessed as reduction in microbial growth incubated for 24 hrs by broth micro-dilution method; type: functional
Salmonella = experiment: Antibacterial activity against Salmonella ATCC 12022 assessed as inhibition of bacterial growth by standard broth microdilution method; type: functional
Escherichia coli [14] = experiment: Antibacterial activity against Escherichia coli ATCC 8730 assessed as reduction in bacterial growth; type: functional
Porphyromonas gingivalis = experiment: Antibacterial activity against Porphyromonas gingivalis ATCC 33277 assessed as reduction in bacterial growth incubated for 24 hrs by micro-dilution method; type: functional
[15] = tested on: Mycobacterium tuberculosis; experiment: Antimycobacterial activity against Mycobacterium tuberculosis H37Ra assessed as reduction in microbial growth; type: functional
Pseudomonas aeruginosa [16] = experiment: Antibacterial activity against Pseudomonas aeruginosa assessed as zone of inhibition; type: functional
[17] = tested on: Staphylococcus epidermidis; experiment: Antibacterial activity against Staphylococcus epidermidis assessed as reduction in microbial growth; type: functional
Staphylococcus aureus [18] = experiment: Antibacterial activity against Staphylococcus aureus assessed as reduction in microbial growth; type: functional
Klebsiella aerogenes = experiment: Antimicrobial activity against Enterobacter aerogenes ATCC 45102; type: functional
Escherichia coli [19] = experiment: Antimicrobial activity against Escherichia coli assessed as reduction in microbial growth; type: functional
Aeromonas hydrophila [20] = experiment: Antibacterial activity against Aeromonas hydrophila; type: functional
Trichophyton rubrum = experiment: Antifungal activity against Trichophyton rubrum assessed as fungal growth inhibition; type: functional
Pseudomonas aeruginosa [21] = experiment: Antibacterial activity against Pseudomonas aeruginosa assessed as reduction in bacterial growth incubated for 24 hrs by broth microdilution method; type: functional
Epidermophyton floccosum = experiment: Antifungal activity against Epidermophyton floccosum measured after 96 hrs by two fold serial dilution technique; type: functional
Rothia kristinae = experiment: Antibacterial activity against Rothia kristinae assessed as reduction in microbial growth; type: functional
Staphylococcus aureus [22] = experiment: Antibacterial activity against Staphylococcus aureus 4125 assessed as reduction in bacterial growth; type: functional
Aeromonas hydrophila [23] = experiment: Antibacterial activity against Aeromonas hydrophila IB101; type: functional
Escherichia coli [24] = experiment: Antibacterial activity against Escherichia coli assessed as zone of inhibition; type: functional
Neisseria gonorrhoeae = experiment: Antibacterial activity against resistant Neisseria gonorrhoeae assessed inhibition of bacterial growth; type: functional
Cryptococcus neoformans = experiment: Antifungal activity against Cryptococcus neoformans assessed as reduction in microbial growth; type: functional
Escherichia coli [25] = experiment: Antibacterial activity against Escherichia coli assessed as reduction in bacterial growth incubated for 12 hrs by microdilution method; type: functional
Proteus vulgaris = experiment: Antimicrobial activity against Proteus vulgaris assessed as inhibition of bacterial growth; type: functional
Bacillus cereus [26] = experiment: Antibacterial activity against Bacillus cereus assessed as reduction in microbial growth after 18 hrs by MTT based broth dilution method; type: functional
Candida albicans = experiment: Antifungal activity against Candida albicans assessed as fungal growth inhibition by broth microdilution method; type: functional
Vibrio harveyi = experiment: Antimicrobial activity against Vibrio harveyi assessed as bacterial growth inhibition; type: functional
Salmonella typhimurium [27] = experiment: Antibacterial activity against Salmonella typhimurium TISTR 780 assessed as inhibition of bacterial growth incubated for 16 to 18 hrs by Mueller-Hinton broth based two-fold serial dilution method; type: functional, Salmonella enterica subsp. enterica serovar Typhimurium; conditions: Salmonella enterica, time 16-18 hrs
Bacillus subtilis = experiment: Antibacterial activity against Bacillus subtilis ATCC 6051 assessed as reduction in bacterial growth incubated for 24 hrs by broth micro-dilution method; type: functional
[28] = tested on: Mycobacterium tuberculosis; experiment: Anti-mycobacterial activity against Mycobacterium tuberculosis H37Ra assessed as reduction in bacterial growth […]; type: functional
Escherichia coli [29] = experiment: Antibacterial activity against Escherichia coli ATCC 25922 assessed as bacterial growth inhibition measured after 48 hrs by resazurin assay; type: functional
Streptococcus suis = experiment: Antibacterial activity against Streptococcus suis ATCC 700794 assessed as bacterial growth inhibition incubated for 24 hrs by broth micro-dilution method; type: functional
Staphylococcus aureus [30] = experiment: Antibacterial activity against Staphylococcus aureus ATCC 25923 assessed as reduction in bacterial growth incubated for 24 hrs by serial dilution method; type: functional
Pseudomonas aeruginosa [31] = experiment: Antibacterial activity against Pseudomonas aeruginosa TISTR 781 assessed as inhibition of bacterial growth incubated for 16 to 18 hrs by Mueller-Hinton broth based two-fold serial dilution method; type: functional; conditions: time 16-18 hrs
Haemophilus parasuis = experiment: Antibacterial activity against Haemophilus parasuis clinical isolates assessed as bacterial growth inhibition measured after 16 to 24 hrs by broth microdilution assay; type: functional; conditions: Glaesserella parasuis; time 16-24 hrs
Pseudomonas aeruginosa [32] = experiment: Antibacterial activity against Pseudomonas aeruginosa TISTR 781 assessed as reduction in bacterial growth by broth microdilution method; type: functional
Bacillus cereus [33] = experiment: Antibacterial activity against Bacillus cereus TISTR 687 incubated for 16 to 18 hrs by Mueller-Hinton broth based two-fold serial dilution method; type: functional; conditions: time 16-18 hrs
Pseudomonas aeruginosa [34] = experiment: Antibacterial activity against Pseudomonas aeruginosa assessed as reduction in bacterial growth by broth microdilution method; type: functional
Staphylococcus aureus [35] = experiment: Antibacterial activity against methicillin resistant Staphylococcus aureus ATCC 33592 incubated for 24 hrs by Mueller-Hinton broth based assay; type: functional
Staphylococcus aureus [36] = experiment: Antibiofilm activity against Staphylococcus aureus CMCC 26003 assessed as reduction in live bacteria in biofilm formation incubated for 24 hrs by crystal violet staining based analysis; type: functional
Bacillus sp. = experiment: Antibacterial activity against Bacillus sp. assessed as inhibition of bacterial growth; type: functional; conditions: Bacillus sp. (in: firmicutes)
Acetylcholinesterase = Acetylcholinesterase (Homo sapiens, UniProt P22303); experiment: Inhibition of Acetylcholinesterase (unknown origin)
Sequence of Acetylcholinesterase (P22303 whole entry): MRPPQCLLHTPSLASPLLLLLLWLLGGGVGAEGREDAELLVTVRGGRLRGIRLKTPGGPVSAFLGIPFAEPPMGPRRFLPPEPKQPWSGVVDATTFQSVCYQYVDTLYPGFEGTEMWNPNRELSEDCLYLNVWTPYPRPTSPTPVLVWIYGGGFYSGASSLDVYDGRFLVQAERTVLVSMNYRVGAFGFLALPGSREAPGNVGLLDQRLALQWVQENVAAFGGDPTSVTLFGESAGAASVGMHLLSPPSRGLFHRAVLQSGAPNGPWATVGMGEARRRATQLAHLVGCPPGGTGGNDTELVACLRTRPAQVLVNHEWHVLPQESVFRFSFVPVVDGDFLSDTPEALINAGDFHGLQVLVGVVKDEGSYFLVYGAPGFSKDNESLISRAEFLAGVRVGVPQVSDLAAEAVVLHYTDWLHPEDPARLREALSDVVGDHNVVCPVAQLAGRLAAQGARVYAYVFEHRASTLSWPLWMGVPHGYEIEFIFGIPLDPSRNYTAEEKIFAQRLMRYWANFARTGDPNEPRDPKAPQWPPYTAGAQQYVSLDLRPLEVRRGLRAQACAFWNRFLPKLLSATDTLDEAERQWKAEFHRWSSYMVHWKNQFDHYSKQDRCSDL

COc1cc2oc3cc(O)c(OC)c(CC=C(C)C)c3c(=O)c2c(O)c1CC=C(C)C
MIC (Staphylococcus aureus [1]): 3.13 µg/mL (≈ 7.37 µM)
MIC (Enterococcus faecium [2]): 6.25 µg/mL (≈ 14.7 µM)
MIC (Staphylococcus aureus [3]): 6.25 µg/mL (≈ 14.7 µM)
MIC (Enterococcus faecium [4]): 6.25 µg/mL (≈ 14.7 µM)

CCCOc1ccc(N2CCCCC2)c2c(=O)c3ccccc3sc12
MIC (Pseudomonas aeruginosa [5]): 32 µg/mL (≈ 90.5 µM)

COc1cc(C=O)c2c(=O)c3ccccc3oc2c1O
MIC (Pseudomonas aeruginosa [5]): 32 µg/mL (≈ 118 µM)

CN(CCO)CC(O)COc1cccc2c(=O)c3ccccc3oc12 (centres undefined)
MIC (Staphylococcus aureus [6]): < 20 µg/mL

COc1cc(C)c2c(c1[C@@H]1O[C@@H](CO)C(O)[C@@H](O)[C@@H]1OC(=O)/C=C\c1ccc(O)cc1)CC(CC(C)=O)=CC2=O (some centres undefined)
MIC (Salmonella typhimurium [7]): 0.18 µM (≈ 0.0995 µg/mL)
MIC (Staphylococcus aureus [8]): 0.72 µM (≈ 0.398 µg/mL)

COc1cc2c(c(O)c1OC)c(=O)c1ccc(O)cc1n2C
diameter of the inhibition zone (DIZ) (Staphylococcus aureus [9]): 9.58 mm

COC1=CC(=O)c2c(O)c3c(c(O)c2C1=O)CC(C)(O)C(OC(C)=O)C3 (centres undefined)
MIC (Bacillus cereus [10]): 0.0088 µM (≈ 0.00319 µg/mL)

C=CCNCC(O)COc1ccc2c(=O)c3cccc(C)c3oc2c1 (centres undefined)
MIC (Staphylococcus aureus [6]): < 20 µg/mL

COc1c(O)c(C=O)cc2c(=O)c3ccccc3oc12
MIC (Pseudomonas aeruginosa [5]): 32 µg/mL (≈ 118 µM)

COC1=CC(=O)c2c(cc3c(c2O)CC(O)C(C)(O)C3)C1=O (centres undefined)
MIC (Bacillus cereus [10]): 0.312 µM (≈ 0.0949 µg/mL)

CN(CCC(O)COc1cccc2c(=O)c3ccc(Cl)cc3oc12)C(C)(C)C (centres undefined)
MIC (Staphylococcus aureus [6]): < 20 µg/mL

COc1ccccc1CNCCC(O)COc1cccc2c(=O)c3ccccc3oc12 (centres undefined)
MIC (Staphylococcus aureus [6]): < 20 µg/mL

CC1=CC2c3c(O)c(O)c4oc5cc(O)cc(O)c5c(=O)c4c3[C@H](c3cc(O)c(O)c4oc5cc(O)cc(O)c5c(=O)c34)C2C(C)(C)C1 (some centres undefined)
MIC (Vibrio campbellii): 15.6 µg/mL (≈ 23.9 µM)
MIC (Staphylococcus aureus [11]): 3.9 µg/mL (≈ 5.98 µM)
MIC (Staphylococcus aureus [12]): 3.9 µg/mL (≈ 5.98 µM)
MIC (Vibrio rotiferianus): 15.6 µg/mL (≈ 23.9 µM)

Cc1cccc2c(=O)c3ccc(OCC(O)CNC(C)C)cc3oc12 (centres undefined)
MIC (Staphylococcus aureus [6]): < 20 µg/mL

O=C1c2cccc(O)c2C(=O)c2c(O)cc(CO)cc21 [ALOE-EMODIN]
MIC (Streptococcus mutans): 6.25 µg/mL (≈ 23.1 µM)
MIC (Staphylococcus aureus [13]): 4 µg/mL
MIC (Salmonella): 250 µg/mL (≈ 925 µM)
MIC (Escherichia coli [14]): 125 µg/mL (≈ 463 µM)
MIC (Porphyromonas gingivalis): 2.5 µg/mL (≈ 9.25 µM)

Cc1cc(O)c2c(c1)C(=O)c1cccc(O)c1C2=O [CHRYSOPHANOL]
MIC [15]: 64 µg/mL
inhibition zone (IZ) (Pseudomonas aeruginosa [16]): 18 mm
MIC [17]: > 250 µg/mL
MIC (Staphylococcus aureus [18]): > 250 µg/mL
MIC (Klebsiella aerogenes): > 250 µg/mL
MIC (Escherichia coli [19]): 3.13 µg/mL
MIC (Aeromonas hydrophila [20]): 200 µg/mL (≈ 787 µM)
MIC (Trichophyton rubrum): 156 µg/mL (≈ 614 µM)
MIC (Pseudomonas aeruginosa [21]): 128 µg/mL (≈ 503 µM)
MIC (Epidermophyton floccosum): 625 µg/mL (≈ 2460 µM)
MIC (Rothia kristinae): > 250 µg/mL
MIC (Staphylococcus aureus [22]): 90 µg/mL (≈ 354 µM)
MIC (Aeromonas hydrophila [23]): 200 µg/mL (≈ 787 µM)
inhibition zone (IZ) (Escherichia coli [24]): 18 mm
MIC (Neisseria gonorrhoeae): 75 µg/mL (≈ 295 µM)
MIC (Cryptococcus neoformans): 50 µg/mL
MIC (Escherichia coli [25]): 125 µg/mL (≈ 492 µM)
MIC (Proteus vulgaris): 128 µg/mL (≈ 503 µM)
MIC (Bacillus cereus [26]): > 250 µg/mL
MIC (Candida albicans): 50 µg/mL (≈ 197 µM)
MIC (Vibrio harveyi): 1000 µg/mL (≈ 3930 µM)

Cc1cc(O)c2c(c1)C(=O)c1cc(O)cc(O)c1C2=O [EMODIN]
MIC (Salmonella typhimurium [27]): 128 µg/mL (≈ 474 µM)
MIC (Bacillus subtilis): 8 µg/mL (≈ 29.6 µM)
MIC [28]: 0.9 µg/mL (≈ 3.33 µM)
MIC (Escherichia coli [29]): > 128 µg/mL
MIC (Staphylococcus aureus [22]): 20 µg/mL (≈ 74 µM)
MIC (Streptococcus suis): 0.125 µg/mL (≈ 0.463 µM)
MIC (Staphylococcus aureus [30]): 64 µg/mL (≈ 237 µM)
MIC (Pseudomonas aeruginosa [31]): 128 µg/mL (≈ 474 µM)
MIC (Haemophilus parasuis): 32 µg/mL (≈ 118 µM)
MIC (Pseudomonas aeruginosa [32]): > 128 µg/mL
MIC (Bacillus cereus [33]): 16 µg/mL (≈ 59.2 µM)
MIC (Pseudomonas aeruginosa [34]): > 128 µg/mL
MIC (Staphylococcus aureus [35]): 4 µg/mL (≈ 14.8 µM)
MIC (Staphylococcus aureus [36]): 0.125 µg/mL (≈ 0.463 µM)
MIC (Bacillus sp.): 0.5 µg/mL (≈ 1.85 µM)

COc1cc(O)c2c(c1)C(=O)c1cc(C)cc(O)c1C2=O [PHYSCION]
MIC (Staphylococcus aureus [22]): 90 µg/mL (≈ 317 µM)

O=C1c2ccccc2C(=O)c2c(O)c(O)cc(O)c21 [PURPURIN]
IC50 (Acetylcholinesterase): 300 nM
